Some targets named below: IGF1R (Homo sapiens, UniProt P08069); EPHA3 (Homo sapiens, UniProt P29320); FLT3(D835V) (Homo sapiens, UniProt P36888, D835V); CSNK1G1 (Homo sapiens, UniProt Q9HCP0); FGFR4 (Homo sapiens, UniProt P22455); BRSK1 (Homo sapiens, UniProt Q8TDC3); CDK3 (Homo sapiens, UniProt Q00526); MERTK (Homo sapiens, UniProt Q12866); HUNK (Homo sapiens, UniProt P57058); DDR2 (Homo sapiens, UniProt Q16832).

What all share (assay): biochemical
Design in all cases: DiscoverX kinase panel, active-site competition binding (KINOMEscan type), percent of control at one concentration
Conditions in all cases: competition binding, percent of control

A further experiment addresses T1, DMPK2 (Homo sapiens, UniProt Q6DT37).
T1 construct: gene CDC42BPG

A further experiment deals with T2, PRP4 (Homo sapiens, UniProt Q13523).
T2 construct: gene PRPF4B

The target of a further experiment is T3, DRAK2 (Homo sapiens, UniProt O94768).
T3 construct: gene STK17B

In the next experiment the target is T4, YSK1 (Homo sapiens, UniProt O00506).
T4 construct: gene STK25

The next experiment concerns the target T5, DRAK1 (Homo sapiens, UniProt Q9UEE5).
T5 construct: gene STK17A

Another experiment deals with T6, MST3 (Homo sapiens, UniProt Q9Y6E0).
T6 construct: gene STK24

The target in a further experiment is T7, DLK (Homo sapiens, UniProt Q12852).
T7 construct: gene MAP3K12

For the next experiment, the target named is T8, MEK6 (Homo sapiens, UniProt P52564).
T8 construct: gene MAP2K6

For another experiment, the target named is T9, TAK1 (Homo sapiens, UniProt O43318).
T9 construct: gene MAP3K7

The target in another experiment is T10, PKAC-alpha (Homo sapiens, UniProt P17612).
T10 construct: gene PRKACA

For a further experiment, the target named is T11, CDK4-cyclinD1 (Homo sapiens, UniProt P11802).
T11 construct: cyclinD1

SMILES strings stand for the structures.

T1 sequence (Q6DT37 whole entry): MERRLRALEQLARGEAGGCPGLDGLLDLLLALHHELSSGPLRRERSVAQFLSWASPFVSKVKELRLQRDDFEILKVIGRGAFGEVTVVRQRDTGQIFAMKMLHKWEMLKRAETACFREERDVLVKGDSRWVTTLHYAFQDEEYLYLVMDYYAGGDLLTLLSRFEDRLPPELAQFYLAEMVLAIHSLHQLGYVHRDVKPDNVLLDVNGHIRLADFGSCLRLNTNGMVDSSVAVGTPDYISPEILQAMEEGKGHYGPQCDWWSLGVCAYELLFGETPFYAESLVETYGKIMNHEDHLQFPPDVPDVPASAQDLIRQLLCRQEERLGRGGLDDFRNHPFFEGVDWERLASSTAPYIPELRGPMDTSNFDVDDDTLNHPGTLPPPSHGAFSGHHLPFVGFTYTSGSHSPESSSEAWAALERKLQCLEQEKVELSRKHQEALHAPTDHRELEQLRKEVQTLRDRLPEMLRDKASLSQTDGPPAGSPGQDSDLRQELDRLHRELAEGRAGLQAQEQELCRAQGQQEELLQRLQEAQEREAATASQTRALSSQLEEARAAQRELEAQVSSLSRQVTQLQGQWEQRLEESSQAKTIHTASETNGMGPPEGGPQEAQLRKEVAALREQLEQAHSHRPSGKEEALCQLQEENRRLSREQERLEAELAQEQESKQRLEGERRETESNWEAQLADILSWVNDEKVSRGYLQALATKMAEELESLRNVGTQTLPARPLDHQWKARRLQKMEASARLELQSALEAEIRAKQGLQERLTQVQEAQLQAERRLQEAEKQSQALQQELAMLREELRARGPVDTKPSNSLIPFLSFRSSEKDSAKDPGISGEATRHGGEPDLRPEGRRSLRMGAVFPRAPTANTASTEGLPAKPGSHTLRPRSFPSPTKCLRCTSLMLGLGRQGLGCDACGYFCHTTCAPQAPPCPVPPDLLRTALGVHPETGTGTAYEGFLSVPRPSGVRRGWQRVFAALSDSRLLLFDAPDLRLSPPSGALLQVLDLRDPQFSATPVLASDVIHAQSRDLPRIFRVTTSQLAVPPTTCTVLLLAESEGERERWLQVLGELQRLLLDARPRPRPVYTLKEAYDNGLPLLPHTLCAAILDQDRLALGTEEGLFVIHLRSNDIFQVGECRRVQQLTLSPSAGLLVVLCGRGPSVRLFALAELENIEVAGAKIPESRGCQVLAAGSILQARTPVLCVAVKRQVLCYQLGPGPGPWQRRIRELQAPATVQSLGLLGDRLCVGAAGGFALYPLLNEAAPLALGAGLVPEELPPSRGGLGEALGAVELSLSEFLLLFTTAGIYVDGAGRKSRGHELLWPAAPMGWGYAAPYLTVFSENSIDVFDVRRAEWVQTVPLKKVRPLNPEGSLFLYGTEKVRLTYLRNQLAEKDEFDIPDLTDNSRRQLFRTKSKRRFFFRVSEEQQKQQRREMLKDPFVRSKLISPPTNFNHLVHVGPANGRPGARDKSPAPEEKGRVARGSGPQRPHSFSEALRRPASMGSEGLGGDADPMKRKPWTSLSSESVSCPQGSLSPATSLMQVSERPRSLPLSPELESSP
T3 sequence (O94768 whole entry): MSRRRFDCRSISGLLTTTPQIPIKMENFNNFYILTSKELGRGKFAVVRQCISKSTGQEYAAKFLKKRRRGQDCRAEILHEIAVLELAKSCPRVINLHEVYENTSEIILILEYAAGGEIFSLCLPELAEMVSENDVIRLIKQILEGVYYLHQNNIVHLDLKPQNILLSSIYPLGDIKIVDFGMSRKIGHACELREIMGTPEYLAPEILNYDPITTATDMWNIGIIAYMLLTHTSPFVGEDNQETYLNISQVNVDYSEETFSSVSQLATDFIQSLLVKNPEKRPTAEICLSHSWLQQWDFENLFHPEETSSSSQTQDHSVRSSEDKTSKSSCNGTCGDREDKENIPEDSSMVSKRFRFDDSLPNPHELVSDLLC
EPHA3, sequence (P29320 whole entry): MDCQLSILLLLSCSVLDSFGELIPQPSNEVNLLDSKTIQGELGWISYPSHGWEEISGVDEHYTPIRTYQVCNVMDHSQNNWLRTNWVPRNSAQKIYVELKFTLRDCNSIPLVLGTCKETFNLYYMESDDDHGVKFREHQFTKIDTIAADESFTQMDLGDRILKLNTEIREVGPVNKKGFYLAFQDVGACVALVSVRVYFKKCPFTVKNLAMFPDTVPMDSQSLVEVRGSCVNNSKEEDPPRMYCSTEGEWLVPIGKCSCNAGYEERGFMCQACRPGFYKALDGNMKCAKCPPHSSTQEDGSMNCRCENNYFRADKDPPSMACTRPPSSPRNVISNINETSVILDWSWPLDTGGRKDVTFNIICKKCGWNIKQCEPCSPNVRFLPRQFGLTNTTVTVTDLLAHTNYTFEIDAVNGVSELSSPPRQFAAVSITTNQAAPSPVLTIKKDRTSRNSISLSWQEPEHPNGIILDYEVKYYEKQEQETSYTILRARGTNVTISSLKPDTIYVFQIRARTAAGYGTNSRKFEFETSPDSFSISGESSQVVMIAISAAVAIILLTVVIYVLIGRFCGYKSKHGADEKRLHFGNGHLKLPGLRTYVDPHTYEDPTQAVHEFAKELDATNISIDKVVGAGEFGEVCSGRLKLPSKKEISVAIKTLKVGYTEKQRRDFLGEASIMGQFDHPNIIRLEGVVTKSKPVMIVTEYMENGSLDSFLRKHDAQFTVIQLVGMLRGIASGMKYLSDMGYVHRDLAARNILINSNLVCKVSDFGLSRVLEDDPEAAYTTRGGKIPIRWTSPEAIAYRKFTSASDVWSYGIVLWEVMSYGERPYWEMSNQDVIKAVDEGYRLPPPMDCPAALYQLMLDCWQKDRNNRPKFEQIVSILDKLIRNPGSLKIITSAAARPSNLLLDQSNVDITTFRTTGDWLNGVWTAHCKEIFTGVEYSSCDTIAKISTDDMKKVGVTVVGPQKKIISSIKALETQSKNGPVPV
CSNK1G1, sequence (Q9HCP0 whole entry): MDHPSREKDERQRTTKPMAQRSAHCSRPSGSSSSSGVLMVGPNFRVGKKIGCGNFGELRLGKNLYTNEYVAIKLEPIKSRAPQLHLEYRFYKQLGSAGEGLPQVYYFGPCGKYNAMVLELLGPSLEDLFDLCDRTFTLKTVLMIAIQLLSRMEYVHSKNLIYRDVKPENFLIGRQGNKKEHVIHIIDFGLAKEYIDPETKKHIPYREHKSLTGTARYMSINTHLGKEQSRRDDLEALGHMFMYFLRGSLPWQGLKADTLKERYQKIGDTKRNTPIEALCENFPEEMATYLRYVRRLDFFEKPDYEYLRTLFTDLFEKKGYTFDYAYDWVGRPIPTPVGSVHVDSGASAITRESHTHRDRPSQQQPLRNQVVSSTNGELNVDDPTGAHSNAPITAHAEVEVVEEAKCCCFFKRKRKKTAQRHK
T11 sequence (P11802 whole entry): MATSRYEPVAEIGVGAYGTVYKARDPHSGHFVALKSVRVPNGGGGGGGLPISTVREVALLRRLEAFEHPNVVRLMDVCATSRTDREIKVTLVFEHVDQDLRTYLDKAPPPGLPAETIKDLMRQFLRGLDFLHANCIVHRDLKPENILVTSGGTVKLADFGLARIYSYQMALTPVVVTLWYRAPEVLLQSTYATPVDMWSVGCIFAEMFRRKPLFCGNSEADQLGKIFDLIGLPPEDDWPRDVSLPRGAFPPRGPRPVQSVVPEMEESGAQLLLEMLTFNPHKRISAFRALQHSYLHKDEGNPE
T11 sequence (P24385 whole entry partner): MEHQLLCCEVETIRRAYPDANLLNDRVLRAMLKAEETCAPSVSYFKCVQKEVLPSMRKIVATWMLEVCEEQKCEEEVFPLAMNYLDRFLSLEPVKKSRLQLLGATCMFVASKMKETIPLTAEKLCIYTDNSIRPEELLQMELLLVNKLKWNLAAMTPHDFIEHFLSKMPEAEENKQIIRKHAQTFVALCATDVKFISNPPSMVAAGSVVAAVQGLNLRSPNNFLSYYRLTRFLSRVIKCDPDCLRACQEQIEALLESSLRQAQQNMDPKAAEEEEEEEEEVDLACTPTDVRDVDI
BRSK1, sequence (Q8TDC3 whole entry): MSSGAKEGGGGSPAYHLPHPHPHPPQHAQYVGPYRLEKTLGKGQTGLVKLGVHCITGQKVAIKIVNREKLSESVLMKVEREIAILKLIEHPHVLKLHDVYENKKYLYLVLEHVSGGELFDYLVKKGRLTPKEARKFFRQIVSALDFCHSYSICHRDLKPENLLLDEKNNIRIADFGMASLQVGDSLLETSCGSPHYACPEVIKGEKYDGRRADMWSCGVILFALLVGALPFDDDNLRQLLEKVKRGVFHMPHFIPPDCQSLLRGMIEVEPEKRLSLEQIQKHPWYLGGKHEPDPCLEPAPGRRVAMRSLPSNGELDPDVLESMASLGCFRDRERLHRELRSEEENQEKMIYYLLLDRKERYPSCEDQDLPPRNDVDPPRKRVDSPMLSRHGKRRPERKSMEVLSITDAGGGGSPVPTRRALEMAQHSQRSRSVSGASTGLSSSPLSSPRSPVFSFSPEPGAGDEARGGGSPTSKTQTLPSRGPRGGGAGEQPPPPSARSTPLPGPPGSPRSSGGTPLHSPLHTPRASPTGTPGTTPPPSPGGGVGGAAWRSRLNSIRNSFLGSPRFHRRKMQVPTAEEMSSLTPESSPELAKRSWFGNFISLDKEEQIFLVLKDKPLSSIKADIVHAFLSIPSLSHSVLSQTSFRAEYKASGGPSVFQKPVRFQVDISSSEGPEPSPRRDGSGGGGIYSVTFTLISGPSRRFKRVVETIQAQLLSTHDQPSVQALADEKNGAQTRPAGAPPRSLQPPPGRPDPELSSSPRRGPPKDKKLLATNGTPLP
CDK3, sequence (Q00526 whole entry): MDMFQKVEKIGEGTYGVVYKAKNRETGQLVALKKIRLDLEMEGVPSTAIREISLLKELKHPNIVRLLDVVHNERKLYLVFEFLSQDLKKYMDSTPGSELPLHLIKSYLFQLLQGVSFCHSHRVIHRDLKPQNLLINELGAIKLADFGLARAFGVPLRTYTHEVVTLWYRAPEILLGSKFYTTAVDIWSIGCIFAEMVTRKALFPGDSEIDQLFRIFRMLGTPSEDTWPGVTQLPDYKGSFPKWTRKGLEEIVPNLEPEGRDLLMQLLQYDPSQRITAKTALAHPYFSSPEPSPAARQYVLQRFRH

Consider `COc1cc2c(cn1)N(C)C(=O)[C@@H](NC(=O)c1nc3n(n1)[C@H](c1ccccc1)CC3)CC2` [GNE684, (S)-N-((S)-7-methoxy-1-methyl-2-oxo-2,3,4,5-tetrahydro-1H-pyrido[3,4-b]azepin-3-yl)-5-phenyl-6,7-dihydro-5H-pyrrolo[1,2-b][1,2,4]triazole-2-carboxamide], for which the remaining binding at 10 µM at IGF1R was found to be 87%; on DMPK2 it was 100%; on PRP4, 84%; on EPHA3, 91%; at FLT3(D835V), 88%; on CSNK1G1 it was 91%. The remaining binding at 10 µM at FGFR4 is 88%; at DRAK2, 100%; on BRSK1, 100%; on YSK1, 90%; on CDK3, 74%; at MERTK, 90%. For the same compound, the remaining binding at 10 µM at HUNK was 94%; at DRAK1, 92%; on MST3, 99%; on DLK it was 100%; on MEK6 it was 100%; on TAK1, 100%. In addition, the remaining binding at 10 µM on PKAC-alpha worked out at 73%; on DDR2, 100%; on CDK4-cyclinD1, 87%.

The values above are taken from article PMC7206119, “RIP1 inhibition blocks inflammatory diseases but not tumor growth or metastases” (Cell Death and Differentiation, 2019).
